Experimental data reported in patent US20230270113A1, “FUNGICIDAL MIXTURES” (Adama Makhteshim Ltd., priority 2020, published 2023).
Where two headings read alike, the source gives them in different places.

Tests used:
Format in all cases: in vivo
[1] = system: Botrytis cinerea; test: Example 11: greenhouse control of Botrytis cinerea in strawberry
[2] = system: Zymoseptoria tritici Tri-R6 strain; conditions: for effect of FOLPET on the efficacy of the systemic product, treated and untreated areas / effect of FOLPET on the efficacy of the systemic product, treated area / effect of FOLPET on the efficacy of the systemic product, untreated area: with FOLPET vs use alone; for effect of FOLPET on the efficacy of the systemic product, treated and untreated areas: 21 and 28 days
[3] = system: Phytophthora infestans; conditions: tomato
[4] = system: Alternaria solani; test: Example 6b: greenhouse control of Alternaria solani in potato plants
[5] = system: Plasmopara viticola; test: Example 7: greenhouse control of Plasmopara viticola in grape plants, folpet with partners
[6] = system: Venturia inaequalis; test: Example A: greenhouse control of apple scab, phthalimides with DMI and/or fluopyram; conditions: for % control observed on leaves 26 DAYS after the application / % control observed on leaves 19 DAYS after the application: captan or folpet 1200, difenoconazole 75, tebuconazole 150, fluopyram 150 gAI/ha; for Var % (19/26 DAYS): change of % control from 19 to 26 days
[7] = system: Venturia inaequalis; test: Example 1b: greenhouse control of apple scab, reduced rates of phthalimides and difenoconazole; conditions: for % control observed on leaves 26 DAYS after the application / % control observed on leaves 19 DAYS after the application: captan or folpet 900, difenoconazole 35, tebuconazole 150, fluopyram 150 gAI/ha; for Var % (19/26 DAYS): change of % control from 19 to 26 days
[8] = system: Alternaria solani; test: Example 4: greenhouse control of Alternaria solani in tomato seedlings, phthalimides with DMI and/or fluxapyroxad; conditions: Table 9; captan or folpet 1200, difenoconazole 75, tebuconazole 150, fluxapyroxad 75 gAI/ha; one spray 1 day before inoculation
[9] = Table 2, one spray 1 day before inoculation, severity based
[10] = Table 4, one spray 1 day before inoculation

Which “% control observed on leaves 21 DAYS after the application” value (shortened to “% control observed on leaves 21 DAYS”) ([1]; rate 500 gr (A.I.)/ha) does the source give for `CC1(C(=O)Nc2ccc(O)c(Cl)c2Cl)CCCCC1` [FENHEXAMID] here?
Its value is 74.2%.

For `O=[N+]([O-])c1cc(C(F)(F)F)c(Cl)c([N+](=O)[O-])c1Nc1ncc(C(F)(F)F)cc1Cl` [FLUAZINAM], which “% control observed on leaves 21 DAYS” value ([1]; rate 500 gr (A.I.)/ha) is on record?
Its value is 68.5%.

For `CC(C)CC(C)c1sccc1NC(=O)c1cn(C)nc1C(F)(F)F` (stereo not drawn) [PENTHIOPYRAD, penthiopyrad], which “effect of FOLPET on the efficacy of the systemic product, treated and untreated areas” value [2] is on record?
Its value is “a significant effect was observed only for the 28-day timing”.

What does the source list for `CCC(C)(NC(=O)c1cc(Cl)c(C)c(Cl)c1)C(=O)CCl` (stereo not drawn) [ZOXAMIDE]?
% control observed on leaves 14 DAYS after the application ([3]; rate 180 gr (A.I.)/ha): 74.4%; % control observed on leaves 21 DAYS after the application ([4]; rate 180 gr (A.I.)/ha): 62.9%; % control observed on leaves 21 DAYS after the application ([5]; rate 135.0 gr (A.I.)/ha): 74.7%

With `Cc1cc(C(F)(F)F)nn1CC(=O)N1CCC(c2nc(C3=NOC(c4c(F)cccc4F)C3)cs2)CC1` (stereo not drawn) [OXATHIAPIPROLIN] as the compound, how does the “% control observed on leaves 14 DAYS after the application” value (shortened to “% control observed on leaves 14 DAYS”) ([3]; rate 15 gr (A.I.)/ha) read?
Its value is 78.6%.

What about the “% control observed on leaves 21 DAYS” value ([4]; rate 15 gr (A.I.)/ha) of the same compound?
Its value is 63.6%.

And the “% control observed on leaves 21 DAYS” value ([5]; rate 22.5 gr (A.I.)/ha)?
Its value is 86.7%.

Which “effect of FOLPET on the efficacy of the systemic product, treated area” value [2] does the source give for `CCCN(CCOc1c(Cl)cc(Cl)cc1Cl)C(=O)n1ccnc1` [PROCHLORAZ, prochloraz] here?
Its value is “numerically appreciated but not significantly improved”.

And the “effect of FOLPET on the efficacy of the systemic product, untreated area” value [2]?
Its value is “significant positive effect”.

How did the “% control observed on leaves 14 DAYS” value ([3]; rate 150 gr (A.I.)/ha) turn out when `CCNC(=O)NC(=O)/C(C#N)=N/OC` [CYMOXANIL] was run?
The value was 68.5%.

And the “% control observed on leaves 21 DAYS” value ([4]; rate 150 gr (A.I.)/ha)?
Its value is 68.4%.

And the “% control observed on leaves 21 DAYS” value ([5]; rate 126.0 gr (A.I.)/ha)?
Its value is 73.6%.

For `N#Cc1c[nH]cc1-c1cccc2c1OC(F)(F)O2` [FLUDIOXONIL], which “% control observed on leaves 21 DAYS” value ([1]; rate 150 gr (A.I.)/ha) is on record?
The value was 40.8%.

With `C#CCOc1ccc(CCNC(=O)C(OCC#C)c2ccc(Cl)cc2)cc1OC` (stereo not drawn) [MANDIPROPAMIDE] as the compound, how does the “% control observed on leaves 14 DAYS” value ([3]; rate 150 gr (A.I.)/ha) read?
The value was 65.7%.

And the “% control observed on leaves 21 DAYS” value ([4]; rate 150 gr (A.I.)/ha)?
Its value is 62.5%.

What about the “% control observed on leaves 21 DAYS” value ([5]; rate 112.5 gr (A.I.)/ha) of the same compound?
The value was 74.1%.

With `Cn1cc(C(=O)Nc2ccc(F)cc2-c2ccc(Cl)c(Cl)c2)c(C(F)F)n1` [BIXAFEN, bixafen] as the compound, how does the “effect of FOLPET on the efficacy of the systemic product, treated and untreated areas” value [2] read?
The value was “greatly improved efficacy”.

And the “protection of the untreated area by the formulation alone” value ([2]; without FOLPET)?
The value was “incapable of protecting the areas not treated”.

What does the source list for `CCCCCCCCc1c(CC)nc2ncnn2c1N` [AMETOCRADIN]?
% control observed on leaves 14 DAYS after the application ([3]; rate 240 gr (A.I.)/ha): 68.0%; % control observed on leaves 21 DAYS after the application ([4]; rate 240 gr (A.I.)/ha): 62.0%; % control observed on leaves 21 DAYS after the application ([5]; rate 225.0 gr (A.I.)/ha): 78.8%

Which results are given for `CC(C)(C)C(O)(CCc1ccc(Cl)cc1)Cn1cncn1` (stereo not drawn) [TEBUCONAZOLE, tebuconazole]?
% control observed on leaves 26 DAYS after the application [6, 9]: 77.4%; % control observed on leaves 19 DAYS after the application ([6]; Table 3): 82.5%; % control observed on leaves 26 DAYS after the application ([6]; Table 3): 77.4%; Var % (19/26 DAYS) ([6]; Table 3): −6.2%; % control observed on leaves 26 DAYS after the application [7, 10]: 78.2%; % control observed on leaves 19 DAYS after the application ([7]; Table 5): 83.8%; % control observed on leaves 26 DAYS after the application ([7]; Table 5): 78.2%; Var % (19/26 DAYS) ([7]; Table 5): −6.7%; % control observed on leaves 20 DAYS after the application [8]: 64.3%

For `O=C(NCc1ncc(C(F)(F)F)cc1Cl)c1c(Cl)cccc1Cl` [FLUOPICOLIDE], which “% control observed on leaves 21 DAYS” value ([5]; rate 75.0 gr (A.I.)/ha) is on record?
Its value is 74.5%.

`Cc1cc(C2CC2)nc(Nc2ccccc2)n1` [CYPRODNIL] was tested. Which “% control observed on leaves 21 DAYS” value ([1]; rate 150 gr (A.I.)/ha) did it give?
The value was 51.8%.

Which “% control observed on leaves 26 DAYS after the application” value (from here on “% control observed on leaves 26 DAYS”) [6, 9] does the source give for `O=C(NCCc1ncc(C(F)(F)F)cc1Cl)c1ccccc1C(F)(F)F` [FLUOPYRAM, fluopyram] here?
The value was 75.3%.

What about the “% control observed on leaves 19 DAYS after the application” value ([6]; Table 3) of the same compound?
Its value is 83.9%.

And the “% control observed on leaves 26 DAYS” value ([6]; Table 3)?
The value was 75.3%.

And the “Var % (19/26 DAYS)” value ([6]; Table 3)?
Its value is −10.3%.

What about the “% control observed on leaves 26 DAYS” value [7, 10] of the same compound?
The value was 76.2%.

What about the “% control observed on leaves 19 DAYS after the application” value ([7]; Table 5) of the same compound?
Its value is 85.1%.

What about the “% control observed on leaves 26 DAYS” value ([7]; Table 5) of the same compound?
The value was 76.2%.

And the “Var % (19/26 DAYS)” value ([7]; Table 5)?
Its value is −10.5%.

What about the “effect of FOLPET on the efficacy of the systemic product, treated area” value [2] of the same compound?
The value was “efficacy gains”.

What about the “effect of FOLPET on the efficacy of the systemic product, untreated area” value [2] of the same compound?
The value was “not statistically significant”.

How did the “% control observed on leaves 21 DAYS” value ([1]; rate 400 gr (A.I.)/ha) turn out when `Cc1cc(OC(C)C)ccc1C(=O)C(C)(C)NC(=O)c1sccc1C` [ISOFETAMID] was run?
The value was 74.0%.
